IC50 data for 93 compounds are collected here from ChEMBL document CHEMBL4482324, “Ash1l inhibitors and methods of treatment therewith” (2017).

Molecules are shown by their SMILES.

In the test the target is Histone-lysine N-methyltransferase ASH1L (Homo sapiens, UniProt Q9NR48). The test can be described thus: Inhibition of MOCR-fused ASH1L SET-BAH ( 2069 to 2833 amino acids) (unknown origin) expressed as in Escherichia coli BL21 (DE3) T1R cells using SAM and chicken mono/dinucleosomes incubated for 1 hr by scintillation counting assay.

Compound `NC(=S)c1cccc(-c2c[nH]c3cc4cc[nH]c4cc23)c1` came in with an IC50 of less than 20 µM.
The figure for `NC(=S)c1cc(-c2cn(CCC(F)F)c3cc(CO)ccc23)c[nH]1` is less than 20 µM.
Turning to `NC(=S)c1cccc(-c2cn(CC(CO)C(F)F)c3cc(CO)ccc23)c1` (stereo not drawn), the IC50 is less than 20 µM.
The same measure for `NCc1ccc2c(-c3cccc(C(N)=S)c3)cn(CCO)c2c1`: 13 µM; for `NC(=S)c1cccc(-c2cn(CCC(F)F)c3cc4cc[nH]c4cc23)c1`: less than 20 µM; for `NC(=S)c1cccc(-c2cn(CCC(F)F)c3cc(N4CCOCC4)ccc23)c1`: less than 20 µM.
Compound `NC(=S)c1cccc(-c2cn(CCCC(F)(F)F)c3cc(CNC(=O)c4c[nH]cn4)ccc23)c1` showed an IC50 of less than 20 µM.
Regarding `NCc1ccc2c(c1)c(CC(CF)CF)cn2-c1cccc(C(N)=S)c1`, the IC50 is less than 20 µM.
The same measure for `CSC(=N)c1cccc(-c2ccccc2)c1`: more than 100 µM.
For `Cc1c(O)ccc(-c2cncc(C(N)=S)c2)c1C`, the IC50 was more than 100 µM.
On to `NC(=S)c1cccc(-c2ccc(O)cc2F)c1`, for which the IC50 is more than 100 µM.
The same measure for `NC(=S)c1cccc(-c2cn(Cc3cnc[nH]3)c3cc(CO)ccc23)c1`: less than 20 µM.
The same measure for `NC(=S)c1cccc(-c2cn(CO)c3ccccc23)c1`: 20 to 100 µM; for `NC(=S)c1cc(-c2cn(CCC(F)F)c3cc(CO)ccc23)c2[nH]ccc2c1`: less than 20 µM.
In the case of `NC(=S)c1cccc(-c2cn(CCC(F)F)c3cc(CO)ccc23)c1`, the IC50 was less than 20 µM.
`NC(=S)c1cccc(-c2cn(CC(O)CO)c3cc(N)ccc23)c1` (stereo not drawn): the IC50 was less than 20 µM.
The same measure for `NCc1ccnc(-n2cccc2)c1`: more than 100 µM.
In the case of `CCCn1cncc1CC(=O)NCc1ccc2c(-c3cccc(C(N)=S)c3)cn(C3CCN(S(=O)(=O)CCC)CC3)c2c1`, the IC50 was less than 20 µM.
The figure for `NC(=S)c1nccs1` is more than 100 µM; for `NC(=S)c1cc(F)cc(-c2ccc(O)cc2)c1` it is more than 100 µM; for `NC(=O)c1cc(-c2cn(CCC(F)F)c3cc(CO)ccc23)ccc1O` it is less than 20 µM.
The same measure for `NC(=S)c1cccc(-n2cc(CC(CF)CF)c3cc(N)ccc32)c1`: less than 20 µM.
Compound `CCCS(=O)(=O)N1CCC(n2cc(-c3cccc(C(N)=S)c3)c3ccc(CNc4c[nH]c(C)n4)cc32)CC1` came in with an IC50 of less than 20 µM.
The same measure for `CCNc1c[nH]c(CC(=O)NCc2ccc3c(-c4cccc(C(N)=S)c4)cn(C4CCN(S(C)(=O)=O)CC4)c3c2)c1`: less than 20 µM; for `NC(=S)c1cccc(-c2cn(C3CCCCC3O)c3cc(CO)ccc23)c1` (stereo not drawn): less than 20 µM; for `NC(=S)c1cccc(-c2c[nH]c3cc(CNC=O)ccc23)c1`: 20 to 100 µM.
The compound `NC(=S)c1cccc(-c2cn(CC(=O)C(F)(F)F)c3cc(CO)ccc23)c1` had an IC50 of less than 20 µM.
Consider `NC(=S)c1cccc(-c2cn(C3CCN(S(=O)(=O)CCCNC(=O)c4ccc5c(c4)C(=O)OC54c5ccc(O)cc5Oc5cc(O)ccc54)CC3)c3cc(CNc4nnc(N)s4)ccc23)c1`, for which the IC50 is less than 20 µM.
`CS(=O)(=O)N1CCC(n2cc(-c3cccc(C(N)=S)c3)c3ccc(CNC(=O)Cc4[nH]cc5ccccc45)cc32)CC1` returned an IC50 of less than 20 µM.
The same measure for `CCCS(=O)(=O)N1CCC(n2cc(-c3cccc(C(N)=S)c3)c3ccc(CNc4ncc(N)s4)cc32)CC1`: less than 20 µM.
As for `NC(=S)c1cccc(-c2cn(CC3C(F)(F)COCC3(F)F)c3cc(CO)ccc23)c1`, the IC50 was less than 20 µM.
The same measure for `NC(=S)c1ccc(F)c(-c2ccc(O)cc2)c1`: more than 100 µM; for `NC(=S)c1cc(-c2ccc(O)cc2)cs1`: more than 100 µM; for `CSCCn1cc(-c2cccc(C(N)=S)c2)c2ccccc21`: more than 100 µM.
The same measure for `NC(=S)c1cccc(-c2cn(CC(C(F)F)C(F)F)c3cc(C(O)CCF)ccc23)c1` (stereo not drawn): less than 20 µM.
As for `CN1c2ccccc2CCc2ccc(C(N)=S)cc21`, the IC50 is more than 100 µM.
As for `NC(=S)c1cccc(-c2cn(C3CCN(S(N)(=O)=O)CC3)c3cc(N)ccc23)c1`, the IC50 is less than 20 µM.
In the case of `NC(=S)c1cccc(-c2cn(CCC(F)F)c3cc(CNC(=O)C(F)(F)F)ccc23)c1`, the IC50 was less than 20 µM.
The same measure for `NC(=S)c1cc(-c2cn(CCC(F)F)c3cc(CO)ccc23)c2cc[nH]c2c1`: less than 20 µM; for `NC(=O)c1cc2c(-c3cccc(C(N)=S)c3)cccc2[nH]1`: more than 100 µM; for `NC(=S)c1cccc(-c2cn(CCCC(F)(F)F)c3cc(CNCc4cn[nH]n4)ccc23)c1`: less than 20 µM.
In turn, `Cc1cc(-c2cccc(C(N)=S)c2)c(C)cc1O` displayed an IC50 of more than 100 µM.
The same measure for `NC(=O)c1ccc2c(-c3cccc(C(N)=S)c3)c[nH]c2c1`: more than 100 µM; for `NC(=S)c1cccc(-n2cccc2)c1`: more than 100 µM; for `COC(=O)c1ccc2c(-c3cccc(C(N)=S)c3)c[nH]c2c1`: 20 to 100 µM.
In turn, `CCCNc1nnc(NCc2ccc3c(-c4cccc(C(N)=S)c4)cn(C4CCN(S(C)(=O)=O)CC4)c3c2)s1` yielded an IC50 of less than 20 µM.
The figure for `NC(=S)c1cccc(-c2cn(CCCC(F)(F)F)c3cc(CNS(=O)(=O)c4c[nH]cn4)ccc23)c1` is less than 20 µM; for `Cc1cc2c(-c3cccc(C(N)=S)c3)cccc2n1C` it is more than 100 µM.
The figure for `NCc1ccc2c(-c3cccc(C(N)=S)c3)cn(C3CCOCC3)c2c1` is less than 20 µM; for `CS(=O)(=O)N1C2CCC1CC(n1cc(-c3cccc(C(N)=S)c3)c3ccc(N)cc31)C2` (stereo not drawn) it is less than 20 µM; for `NC(=S)c1cccc(-c2cn(CCC(F)F)c3cc(CNCCOCCOCCOCCNc4cccc5c4C(=O)N(C4CCC(=O)NC4=O)C5=O)ccc23)c1` (stereo not drawn) it is less than 20 µM.
`NC(=S)c1cc(-c2cn(CC(CF)CF)c3cc(CO)ccc23)ccn1`: the IC50 was less than 20 µM.
The figure for `CSCCn1cc(-c2cccc(C(N)=S)c2)c2ccc(N)cc21` is less than 20 µM.
The same measure for `CS(=O)(=O)N1CCC(n2cc(-c3cccc(C(N)=S)c3)c3ccc(CNc4nnc(N)s4)cc32)CC1`: less than 20 µM; for `NC(=S)c1cc(-c2ccc(O)cc2)ccc1F`: more than 100 µM; for `NC(=S)c1cccc(-c2cccc3[nH]ncc23)n1`: more than 100 µM.
The figure for `CCCS(=O)(=O)N1CCC(n2cc(-c3cccc(C(N)=S)c3)c3ccc(CNC(=O)Cc4c[nH]cn4)cc32)CC1` is less than 20 µM.
The compound `CC(C)(C)OC(=O)Nc1nc(CC(=O)NCc2ccc3c(-c4cccc(C(N)=S)c4)cn(CCCC(F)(F)F)c3c2)cs1` came in with an IC50 of less than 20 µM.
The figure for `NC(=O)C1CCN(Cc2ccc3c(-c4cccc(C(N)=S)c4)cn(CCCC(F)(F)F)c3c2)CC1` is 20 to 100 µM.
The same measure for `NC(=S)c1cccc(-c2cccc3[nH]c(CSP(=S)(c4ccccc4)c4ccccc4)cc23)c1`: more than 100 µM; for `NC(=S)c1cccc(-c2ccc(OCCOCCNC(=O)CCCCCNC(=O)c3ccc4c(c3)C(=O)OC43c4ccc(O)cc4Oc4cc(O)ccc43)c3[nH]ccc23)c1`: more than 100 µM; for `NC(=O)c1cccc(-c2cn(CCC(F)F)c3cc(CO)ccc23)c1`: less than 20 µM.
In turn, `NC(=S)c1cccc(-c2ccc(O)c(F)c2)c1` returned an IC50 of more than 100 µM.
For `NC(=S)c1cccc(-c2cn(CC(O)C(F)(F)F)c3cc(CO)ccc23)c1` (stereo not drawn), the IC50 is less than 20 µM.
In turn, `NC(=S)c1ccc(-c2ccccc2)s1` had an IC50 of more than 100 µM.
In turn, `NC(=S)c1cccc(-c2cn(CC3OCCO3)c3cc(N)ccc23)c1` came in with an IC50 of 20 to 100 µM.
The same measure for `Cc1cc2c(-c3cccc(C(N)=S)c3)cccc2[nH]1`: more than 100 µM; for `NC(=S)c1cc(O)cc(-c2cccc3[nH]ccc23)c1`: more than 100 µM; for `NC(=S)c1cc(-c2ccc(O)cc2)ccn1`: more than 100 µM.
The figure for `NCCOCCOc1ccc(-c2cccc(C(N)=S)c2)c2cc[nH]c12` is 20 to 100 µM; for `NC(=S)c1cccc(-c2cn(C3CCCCC3)c3cc(CO)ccc23)c1` it is less than 20 µM; for `NC(=S)c1cccc(-c2cccc3[nH]c(CNCCCO)cc23)c1` it is more than 100 µM.
The figure for `NC(=S)c1cccc(-n2cc(N3CCCCC3)c3cc(CO)ccc32)c1` is less than 20 µM; for `NC(=S)c1cccc(-c2cn(CCCC(F)(F)F)c3cc(N)ccc23)c1` it is less than 20 µM.
The compound `Cc1c[nH]c2cccc(-c3cccc(C(N)=S)c3)c12` returned an IC50 of more than 100 µM.
The same measure for `NC(=S)c1cccc(-c2ccc(O)c3c2CCC3)c1`: more than 100 µM; for `NC(=S)c1cccc(-c2cc(CC(CF)CF)c3[nH]ccc3c2)c1`: less than 20 µM; for `NC(=S)c1cccc(-c2c[nH]c3cccc(O)c23)c1`: more than 100 µM.
The same measure for `NC(=S)c1cccc(-c2cn(CC(CF)CF)c3cc(CF)ccc23)c1`: less than 20 µM; for `NC(=S)c1cccc(-c2cn(Cc3cn[nH]c3)c3cc(N)ccc23)c1`: 20 to 100 µM.
The same measure for `NC(=S)c1cccc(-c2cn(CCCC(F)(F)F)c3cc(CNC(=O)c4csc(N)n4)ccc23)c1`: less than 20 µM.
The compound `NC(=S)c1cccc(-c2cn(CCO)c3cc(N)ccc23)c1` had an IC50 of 20 to 100 µM.
The same measure for `NC(=S)c1cccc(-c2cn(CCC(F)F)c3cc4c(cc23)CCNC4)c1`: less than 20 µM; for `NC(=S)c1cccc(-c2cn(CC(CF)CF)c3cc(C(O)CO)ccc23)c1` (stereo not drawn): less than 20 µM; for `NCc1ccc2c(-c3cccc(C(N)=S)c3)c[nH]c2c1`: 36 µM.
The figure for `CNc1ccc2c(-c3cccc(C(N)=S)c3)c[nH]c2c1` is 20 to 100 µM; for `NC(=S)c1cccc(-c2cn(CC(CF)CF)c3cc(O)ccc23)c1` it is less than 20 µM; for `NC(=S)c1cccc(-c2c[nH]c3c(CO)cccc23)c1` it is 20 to 100 µM.
Regarding `NC(=O)c1cccc(-c2cn(CCC(F)F)c3cc(N)ccc23)c1`, the IC50 was less than 20 µM.
`NC(=S)c1cccc(-c2cn(CCCC(F)(F)F)c3cc(CNC(=O)CCc4c[nH]cn4)ccc23)c1`: the IC50 is less than 20 µM.
The figure for `COc1cc(C(N)=S)cc(-c2cn(CCCC(F)(F)F)c3cc(N)ccc23)c1` is 20 to 100 µM.
Compound `NC(=S)c1cncc(-c2ccc(O)cc2)c1` had an IC50 of more than 100 µM.
On to `CS(=O)(=O)N1CCC(n2cc(-c3cccc(C(N)=S)c3)c3ccc(N)cc32)CC1`, for which the IC50 is less than 20 µM.
